Test system: rats
Assay: Conditioned Place Preference (CPP) animal model of opioid-induced euphoria
Details: subcutaneous, 6 conditioning days of 30 min sessions, preference assessed on day 8, time in drug-paired minus vehicle-paired chamber
Procedure: It was administered in a volume of 2 ml/kg. […] The oxycodone was administered as the hydrochloride salt form and was dissolved in saline. The subcutaneous volume for each was 2 ml/kg.
For this Example, a 6 day unbiased, counterbalanced paradigm was employed. Innate preference was tested on day 1 (preconditioning day or baseline). On this day, naïve animals (rats) had free access to all three compartments for 30 minutes. The time spent in each chamber was automatically recorded. For conditioning sessions (days 2-7), animals were randomly assigned to compartment pairings for thirty minutes. During the first conditioning session (day 2), animals were randomly divided. […] Control animals received vehicle plus vehicle during each pairing. This conditioning procedure was replicated over five more days (thirty minute sessions for 6 total conditioning days). On day 8, preference was assessed. Each animal was allowed to roam freely about all three compartments for 30 minutes. The removable doors remained opened. The time spent in each compartment was automatically recorded. Conditioned Place Preference (“CPP”) (seconds) is represented as the difference between the time spent in the drug-paired and vehicle-paired chambers on the test day and is indicative of the rewarding properties associated with the compound(s) studied.

SMILES: COc1ccc2c3c1O[C@H]1C(=O)CC[C@@]4(O)[C@@H](C2)N(C)CC[C@]314 [oxycodone]
- Conditioned Place Preference (CPP) as compared to vehicle treated controls: produces a statistically significant CPP

Reference: patent US20200276187A1, “SYSTEMS AND METHODS FOR A[…]-INDUCED EUPHORIA” (Purdue Pharma L.P., priority 2014, published 2020)
